Assay results as given in the NIST ThermoML archive (doi:10.1016/j.jct.2013.10.001).
Values joined by “and” are separate entries in the source; they are usually repeats but may differ in a detail not shown here. Equal entries are not always repeated.

Details: Liquid

CC(C)CCCC(C)CCCC(C)CCCCC(C)CCCC(C)CCCC(C)C (stereo not given) [2,6,10,15,19,23-hexamethyltetracosane]
viscosity
Details | Falling or rolling sphere viscometry | quartz resonator viscometer
293.15 K, 10220 kPa | – | 45.8 mPa·s and 46.2 mPa·s
293.15 K, 20250 kPa | – | 57.9 mPa·s and 58.5 mPa·s
293.15 K, 30090 kPa | – | 70.8 mPa·s and 71.5 mPa·s
293.15 K, 40100 kPa | – | 87 mPa·s and 87.9 mPa·s
293.15 K, 50070 kPa | – | 108.1 mPa·s and 109.2 mPa·s
293.15 K, 60060 kPa | – | 130 mPa·s and 131.3 mPa·s
293.15 K, 71000 kPa | – | 160.4 mPa·s and 162.1 mPa·s
293.15 K, 80600 kPa | – | 180.6 mPa·s and 182.4 mPa·s
303.15 K, 11300 kPa | – | 28.6 mPa·s and 28.5 mPa·s
303.15 K, 19900 kPa | – | 34.1 mPa·s and 34 mPa·s
303.15 K, 20000 kPa | 34.78 mPa·s | –
303.15 K, 31400 kPa | – | 43.9 mPa·s and 43.8 mPa·s
303.15 K, 40000 kPa | 51.64 mPa·s | –
303.15 K, 40600 kPa | – | 53 mPa·s and 52.9 mPa·s
303.15 K, 50900 kPa | – | 64.7 mPa·s and 64.6 mPa·s
303.15 K, 60000 kPa | 74.96 mPa·s | 78.3 mPa·s and 78.1 mPa·s
303.15 K, 71700 kPa | – | 94.7 mPa·s and 94.5 mPa·s
303.15 K, 80000 kPa | 107.09 mPa·s | 107.8 mPa·s and 107.5 mPa·s
303.15 K, 100000 kPa | 146.47 mPa·s | –
303.15 K, 120000 kPa | 210.53 mPa·s | –
303.15 K, 140000 kPa | 305.4 mPa·s | –
303.15 K, 160000 kPa | 422.48 mPa·s | –
313.15 K, 10000 kPa | 16.8 mPa·s | –
313.15 K, 10110 kPa | – | 18.2 mPa·s and 18.3 mPa·s
313.15 K, 15000 kPa | 18.9 mPa·s | –
313.15 K, 20170 kPa | – | 22.4 mPa·s and 22.6 mPa·s
313.15 K, 25000 kPa | 23.8 mPa·s | –
313.15 K, 29620 kPa | – | 26.6 mPa·s and 26.9 mPa·s
313.15 K, 40550 kPa | – | 32.5 mPa·s and 32.8 mPa·s
313.15 K, 49650 kPa | – | 38.5 mPa·s and 38.8 mPa·s
313.15 K, 50000 kPa | 39.2 mPa·s and 36.3 mPa·s | –
313.15 K, 60500 kPa | – | 47 mPa·s and 47.4 mPa·s
313.15 K, 70400 kPa | – | 55.9 mPa·s and 56.4 mPa·s
313.15 K, 75000 kPa | 61.2 mPa·s and 59.6 mPa·s | –
313.15 K, 80670 kPa | – | 66.4 mPa·s and 66.9 mPa·s
313.15 K, 100000 kPa | 92.3 mPa·s and 91.3 mPa·s | –
313.15 K, 125000 kPa | 136.4 mPa·s and 134.8 mPa·s | –
313.15 K, 150000 kPa | 199 mPa·s and 194.1 mPa·s | –
313.15 K, 175000 kPa | 275.3 mPa·s | –
313.15 K, 200000 kPa | 386.2 mPa·s | –
313.15 K, 225000 kPa | 537.7 mPa·s | –
313.15 K, 250000 kPa | 744.7 mPa·s | –
323.15 K, 10250 kPa | – | 12.8 mPa·s and 12.7 mPa·s
323.15 K, 20000 kPa | 15.77 mPa·s | –
323.15 K, 20340 kPa | – | 15.5 mPa·s
323.15 K, 30170 kPa | – | 18.4 mPa·s
323.15 K, 40000 kPa | 22.36 mPa·s | –
323.15 K, 40160 kPa | – | 21.8 mPa·s
323.15 K, 50130 kPa | – | 25.8 mPa·s
323.15 K, 60000 kPa | 31.17 mPa·s | –
323.15 K, 60110 kPa | – | 30.8 mPa·s and 30.8 mPa·s
323.15 K, 70120 kPa | – | 36.2 mPa·s
323.15 K, 80000 kPa | 42.71 mPa·s | –
323.15 K, 80060 kPa | – | 43 mPa·s
323.15 K, 100000 kPa | 57.75 mPa·s | –
323.15 K, 120000 kPa | 77.38 mPa·s | –
323.15 K, 140000 kPa | 102.35 mPa·s | –
323.15 K, 160000 kPa | 135.1 mPa·s | –
323.15 K, 180000 kPa | 175.94 mPa·s | –
323.15 K, 200000 kPa | 228.18 mPa·s | –
333.15 K, 9160 kPa | – | 9 mPa·s
333.15 K, 19900 kPa | – | 10.9 mPa·s
333.15 K, 30240 kPa | – | 13 mPa·s and 13.1 mPa·s
333.15 K, 40000 kPa | – | 15.3 mPa·s
333.15 K, 49340 kPa | – | 17.7 mPa·s
333.15 K, 60990 kPa | – | 21.4 mPa·s
333.15 K, 70280 kPa | – | 25 mPa·s
333.15 K, 80900 kPa | – | 28.5 mPa·s and 28.6 mPa·s
338.15 K, 50600 kPa | 15.56 mPa·s | –
338.15 K, 102800 kPa | 32.94 mPa·s | –
338.15 K, 150200 kPa | 60.9 mPa·s | –
338.15 K, 198400 kPa | 108.9 mPa·s | –
338.15 K, 249700 kPa | 194 mPa·s | –
338.15 K, 272700 kPa | 243.8 mPa·s | –
338.15 K, 299800 kPa | 327.6 mPa·s | –
338.15 K, 349200 kPa | 538.5 mPa·s and 531 mPa·s | –
343.15 K, 10000 kPa | 7.3 mPa·s | –
343.15 K, 15000 kPa | 8 mPa·s | –
343.15 K, 25000 kPa | 9.4 mPa·s | –
343.15 K, 50000 kPa | 13.6 mPa·s | –
343.15 K, 75000 kPa | 19.2 mPa·s and 18.7 mPa·s | –
343.15 K, 100000 kPa | 26.5 mPa·s and 27.2 mPa·s | –
343.15 K, 125000 kPa | 36.2 mPa·s and 38.1 mPa·s | –
343.15 K, 150000 kPa | 49.1 mPa·s and 52 mPa·s | –
343.15 K, 175000 kPa | 69.9 mPa·s | –
343.15 K, 200000 kPa | 92.8 mPa·s | –
343.15 K, 225000 kPa | 122.1 mPa·s | –
343.15 K, 250000 kPa | 159.6 mPa·s | –
348.15 K, 20000 kPa | 7.45 mPa·s | –
348.15 K, 40000 kPa | 10.15 mPa·s | –
348.15 K, 60000 kPa | 13.51 mPa·s | –
348.15 K, 80000 kPa | 17.79 mPa·s | –
348.15 K, 100000 kPa | 23.08 mPa·s | –
348.15 K, 120000 kPa | 29.61 mPa·s | –
348.15 K, 140000 kPa | 37.63 mPa·s | –
348.15 K, 160000 kPa | 48.09 mPa·s | –
348.15 K, 180000 kPa | 60.38 mPa·s | –
348.15 K, 198300 kPa | 70.83 mPa·s | –
348.15 K, 200000 kPa | 74.91 mPa·s | –
348.15 K, 200400 kPa | 72.63 mPa·s | –
348.15 K, 300600 kPa | 202.9 mPa·s | –
348.15 K, 349800 kPa | 327.6 mPa·s | –
363.15 K, 10200 kPa | 4.36 mPa·s | –
363.15 K, 21000 kPa | 5.15 mPa·s | –
363.15 K, 30900 kPa | 5.97 mPa·s | –
363.15 K, 40700 kPa | 6.84 mPa·s | –
363.15 K, 50600 kPa | 7.82 mPa·s | –
363.15 K, 60600 kPa | 8.94 mPa·s | –
363.15 K, 70700 kPa | 10.18 mPa·s | –
363.15 K, 80600 kPa | 11.49 mPa·s | –
363.15 K, 91000 kPa | 13.06 mPa·s | –
363.15 K, 100000 kPa | 14.59 mPa·s and 14.2 mPa·s | –
363.15 K, 120400 kPa | 18.36 mPa·s | –
363.15 K, 125000 kPa | 19.9 mPa·s | –
363.15 K, 150000 kPa | 26.8 mPa·s | –
363.15 K, 150300 kPa | 25.56 mPa·s | –
363.15 K, 175000 kPa | 35.1 mPa·s | –
363.15 K, 200000 kPa | 45 mPa·s | –
363.15 K, 200200 kPa | 42.82 mPa·s | –
363.15 K, 225000 kPa | 56.7 mPa·s | –
363.15 K, 225600 kPa | 55.03 mPa·s | –
363.15 K, 246900 kPa | 66.23 mPa·s | –
363.15 K, 250000 kPa | 70.4 mPa·s | –
